Literature values, collected in patent US20040247544A1, “Use of dialkyl sulphones in cosmetic nailcare compositions for promoting growth of the nails” (L'OREAL, priority 2002, published 2004).
Where two headings read alike, the source gives them in different places.

Assays:
nails [1] = tested on: nails
nails [2] = conditions: oral ingestion, aqueous 5% solution, dogs

SMILES: CS(C)(=O)=O [MSM, methylsulphonylmethane]
- strength and brittleness of the nails (nails [1]; aqueous formulation containing 10% MSM and 50% water, applied to the nails with cotton wool, left to act for 15 minutes): strong and less brittle
- brittleness of the nails (nails [1]; nail-varnish removers: standard varnish solvent with 5 to 10% of MSM): less brittle
- brittleness of the nails (nails [1]; solvent-based (ethyl acetate or amyl acetate) varnish containing 5% by weight of MSM): less brittle
- growth of the nails (nails [2]): promotes and stimulates the growth of the nails
